Measured values: patent US20250345316A1, “METHODS OF INCREASING LYMPHOCYTE TRAFFICKING TO THE COLON BY STIMULATING RETINOIC ACID RECEPTORS AND ARYL HYDROCARBON RECEPTORS” (President and Fellows of Harvard College, priority 2024, published 2025)

What was measured:
[1] = system: OT-1 cells (antigen-specific CD8+ T cells); assay: OT-1 in vivo assay (parenteral immunization): OT-1 cells in tissues by flow cytometry; set-up: species or system mice
[2] = system: OT-1 cells (antigen-specific CD8+ T cells); assay: as above; set-up: species or system mice; conditions: for OT-1 effector cells in the colon and cecum: B6 mice, OVA+CpG s.c. day 0, Am80 500 nmol, 10-CL-BBQ 164 nmol s.c. day 0, 1, 2; for OT-1 effector cells in the colon and cecum / OT-1 cells in the small intestine: day 7; for OT-1 cells in the small intestine: same regimen; for CD8+ T cell trafficking to the small intestine / tissue residence: supplementation
Protocol: OT-1 in vivo Assay (Parenteral Immunization): Mice were adoptively transferred with OT-1 cells, and subsequently immunized with […] chicken ovalbumin (OVA) and an adjuvant CpG-1668 (0.5 nmol). On day 0.1 and 2, mice were injected s.c. with solvent control (DMSO, 10% v/v in PEG-400), retinoic acid receptor agonist Am80 (500 nmol in PEG-400), AHR agonist 10-CL-BBQ (164 nmol in PEG-400), or Am80+10-CL-BBQ (same dose). At timepoints defined by individual experiments, tissues were harvested and analyzed.
Preparing intestinal samples for flow cytometry: Small intestine (duodenum to ileum) was dissected out and flushed. Peyer's patches and fat were removed, and the tissue was cut into 4-5 pieces, and flipped to expose the luminal surface. Colon and cecum were dissected out, flushed and cut open longitudinally.
(§1) Cell Count and Flow Cytometry and Cell Count: For cell counting, samples were diluted and counted on a BD Accuri C6 Plus cytometer. For flow cytometry, samples were run on a Beckman CytoFLEX cytometer, and analysis was done using Flow Jo software V10.
The experimental approach is shown in the schematic in FIG. 2. Antigen-specific CD8+ T cells (OT-1 cells, recognizing a peptide within the chicken ovalbumin protein) were adoptively transferred (1×10^5 cells) to B6 recipient mice on day −1, and B6 recipients were vaccinated subcutaneously (s.c.) on day 0 with 100 μg chicken ovalbumin (OVA) and an adjuvant CpG-1668 (0.5 nmol). On day 0.1 and 2, mice were injected subcutaneously with solvent control (DMSO, 10% v/v in PEG-400), retinoic acid receptor agonist Am80 (500 nmol in PEG-400), AHR agonist 10-CL-BBQ (164 nmol in PEG-400), or Am80+10-CL-BBQ (same dose). Tissues were harvest on day 7 and analyzed by flow cytometry.

[3] = system: α4β7, GPR15 and CCR9 on OT-1 cells; assay: OT-1 in vivo assay: expression of gut homing molecules on OT-1 cells in blood and draining lymph nodes; set-up: species or system mice; conditions: for GPR15 on OT-1 cells (effector CD8+ T cells): day 4 blood, L-KYN 500 nmol in PEG-400; for α4β7 and CCR9 expression: subcutaneous vaccination model, supplementation
Protocol: At timepoints defined by individual experiments, tissues were harvested and analyzed.
as §1
The experimental approach is shown in the schematic in FIG. 2. […] Tissues were harvest on day 7 and analyzed by flow cytometry.

OT-1 CD8+ T cells = assay: OT-1 in vitro culture to generate GPR15+CD8+ T cells; format: cell-based, mouse; conditions: day 4 post activation
Protocol: OT-1 in vitro Culture: OT-1 splenocytes were pulsed for 1 hour with 1 μg OVA peptide (257-264) and cultured overnight in complete T cell (RPMI) media. The next day, CD8+ T cells were isolated using mouse CD8a+ T Cell Isolation Kit (Miltenyi) and cultured with various treatment conditions.
Various treatment conditions were tested for the efficiency of generating GPR15^+CD8^+ T cells. OT-1 splenocytes were pulsed for 1 hour with 1 μg OVA peptide (257-264) and cultured overnight in complete RPMI media. The next day, CD8^+ T cells were isolated using mouse CD8a^+ T Cell Isolation Kit (Miltenyi) and cultured with various treatment conditions. […] 4 days post activation. Plots were pre-gated on CD8a^+ cells. […] GPR15^+ T cells peaked around 4-5 days post activation. Cells were treated with IL-2+10-CL-BBQ+TGF-β1.

AHR = assay: CRISPR knockout of AHR in OT-1 cells, co-transfer with control cells; format: in vivo, mouse
Description: CRISPR Knockout of AHR and GPR15: Naïve GFP+OT-1 cells were isolated with mouse CD8a+ T Cell Isolation Kit (Miltenyi) and nucleofected with Cas9 protein, complexed with either control (CD19) gRNA, or GPR15 gRNA. gRNAs were designed using Synthego online tool and synthesized by Synthego. The procedure was done using a Lonza nucleofector, with the P3 Primary cell Kit. Cells were distinguished based on expression of congenic marker CD45.1 and co-transferred into recipient mice. Recipient mice were immunized, and tissues were analyzed at different timepoints.
Loss of AHR abrogated ligand-depended upregulation of GPR15. Naïve GFP+OT-1 cells were nucleofected with Cas9 protein, complexed with either control (CD19) gRNA, or AHR gRNA. Transfected cells were distinguished based on expression of congenic marker CD45.1 and co-transferred into recipient mice. Recipient mice were immunized with OVA+CpG, and injected with DMSO, Am80, 10-CL-BBQ or Am80+10-CL-BBQ (same dose and regimen as previously described). Flow cytometry plots, gated on OT-1 cells. […] Quantification is shown of GPR15+, α4β7+ and CCR9+ cells, percentage out of OT-1 cells in respective groups (FIGS. 21B-21D). […] Control cells used were CD45.1^− and […] cells were CD45.1+.

OT-1 cells = assay: Short-term competitive homing of OT-1 cells; format: in vivo, mice; conditions: 5×10^6 cells from each treatment transferred into naïve B6 recipients; without Am80
Protocol: Short-term Competitive Homing: OT-1 cells, either in vitro or in vivo generated, were distinguished by congenic markers CD45.1/CD45.2, mixed at around 1:1 ratio and adoptively transferred into recipient animals. At 20-24 hours post transfer, mice were sacrificed, and tissues were harvested for analysis. Ratio of transferred cells were obtained, and homing index was calculated.
Briefly, two GFP+OT-1 transgenic mice with or without expression of the congenic marker CD45.1 were used per experiment (mouse A and mouse B), and OT-1 cells were isolated from their spleens. OT-1 cells from different mice ([A] and [B]) were subjected to different treatments (A and B, including culture, genetic manipulation, in vivo activation and re-harvesting, etc). The cells were then mixed at an around 1:1 ratio and injected into a B6 recipient (GFP−). At timepoints (determined for each experiment), with or without additional in vivo treatments (determined by each experiment), tissues were analyzed by flow cytometry and the ratio of [A] and [B] in each tissue was obtained. Homing index and normalized homing index (see equation) were calculated.
As a supplementation to in vitro approaches, the gut homing capacity of in vivo generated effector T cells was tested in the disclosed vaccination strategy. […]

[4] = 10 nM ATRA added concurrently with IL-2+TGF-β1+10-CL-BBQ

With Cc1ccccc1N=Nc1ccc(NC(=O)c2ccnn2C)c(C)c1 [CH-223191] the “effects of 10-CL-BBQ on colon trafficking” value ([1]; 250 nmol in PEG-400, given with 10-CL-BBQ) was “antagonized”.
For FC(F)(F)c1ccc(Nc2nccc(-c3cccc(Cl)c3)n2)cc1 [VAF347], the “colon trafficking (OT-1 cells out of total CD8+ T cells)” value ([1]; 250 nmol in PEG-400) was “increased colon trafficking but at a lower efficacy than 10-CL-BBQ”.
With Nc1ccccc1C(=O)C[C@H](N)C(=O)O [L-KYN, L-kynurenine] the “colon trafficking (OT-1 cells out of total CD8+ T cells)” value ([2]; alone) was “did not increase”, the “colon trafficking (OT-1 cells out of total CD8+ T cells)” value ([2]; in combination with Am80) was “did not increase” and the “GPR15 on OT-1 cells (effector CD8+ T cells)” value [3] was “did not increase”.
CC1(C)CCC(C)(C)c2cc(NC(=O)c3ccc(C(=O)O)cc3)ccc21 [Am80, 4-[[(5,6,7,8-Tetrahydro-5,5,8,8-tetramethyl-2-naphthalenyl)amino]carbonyl]benzoic acid] was tested, and the “OT-1 effector cells in the colon and cecum” value [2] was “some increase”, the “OT-1 cells in the small intestine” value [2] was “increased” and the “optimal trafficking to the large intestine” value ([2]; subcutaneous vaccination model) was “not sufficient”. For the same compound, the “CD8+ T cell trafficking to the small intestine” value ([2]; subcutaneous vaccination model) was “increased”, the tissue residence ([2]; subcutaneous vaccination model) was “promoted” and the “α4β7 and CCR9 expression” value [3] was “increased”.
With CC1=C(/C=C/C(C)=C/C=C/C(C)=C/C(=O)O)C(C)(C)CCC1 [ATRA, 3,7-Dimethyl-9-(2,6,6-trimethyl-1-cyclohexen-1-yl)-2E,4E,6E,8E,-nonatetraenoic acid] the “CD8+ T cell trafficking to the small intestine” value ([2]; subcutaneous vaccination model) was “increased”, the tissue residence ([2]; subcutaneous vaccination model) was “promoted” and the “α4β7^high GPR15+ population” value (OT-1 CD8+ T cells; 10 nM ATRA added 24-48 hours after IL-2+TGF-β1+10-CL-BBQ) was “enabled the generation of an α4β7^high GPR15+ population”. For the same compound, the GPR15 expression (OT-1 CD8+ T cells; [4]) was “completely abrogated”, the “trafficking phenotype (α4β7, CCR9)” value (OT-1 CD8+ T cells; [4]) was “skewed cells towards a small intestine trafficking phenotype” and the “α4β7 and CCR9 expression” value [3] was “increased”.
With O=c1c2cccc3cccc(c32)c2nc3ccc(Cl)cc3n12 [10-CL-BBQ, 10-Chloro-7H-benzimidazo[2,1-a]benzl[de]isoquinolin-7-one] the “GPR15 on OT-1 cells nucleofected with AHR gRNA” value (AHR; day 5 blood, compared to control gRNA cells) was “not 10-CL-BBQ dependent upregulation”, the “representation of AHR KO cells in the colon and cecum (ratio [Ctrl] to [AHR knockout], normalized to spleen)” value (AHR; day 7 post immunization) was “under-represented” and the “OT-1 effector cells in the colon and cecum” value [2] was “some increase”. For the same compound, the “OT-1 cells in the small intestine” value [2] was “no effect”, the “GPR15 expression on OT-1 cells in the blood” value ([3]; blood, day 4-6) was “most robust” and the “GPR15 expression on CD8a+ cells of the recipient (mostly naïve)” value ([3]; blood, day 5) was “did not affect”. The “GPR15 on adoptively transferred OT-1 cells (effector phase)” value ([3]; blood, day 5) was “up-regulated”, the “GPR15 on OT-1 cells (effector CD8+ T cells)” value [3] was “significantly up-regulated” and the “trafficking of in vitro cultured cells to small and large intestine” value (OT-1 cells) was “did not constitute trafficking”.
